Assay results reported in the NIST ThermoML archive (doi:10.1016/j.jct.2010.08.019).

Assay: refractive index (Na D-line) (dimensionless); xn = mol fraction of the nth substance listed
Conditions: 101 kPa, Liquid, Standard Abbe refractometry

CC(C)CC(C)(C)C [2,2,4-trimethylpentane] + CC(C)O
Conditions	refractive index
293.15 K, x2 = 0.2501	1.41104
293.15 K, x2 = 0.3003	1.40906
293.15 K, x2 = 0.3502	1.40701
293.15 K, x2 = 0.4004	1.40497
293.15 K, x2 = 0.4502	1.4029
293.15 K, x2 = 0.5001	1.40079
293.15 K, x2 = 0.55	1.39865
293.15 K, x2 = 0.5998	1.39647
293.15 K, x2 = 0.6502	1.39422
293.15 K, x2 = 0.7002	1.39194
293.15 K, x2 = 0.7499	1.38965
293.15 K, x2 = 0.7999	1.38727
293.15 K, x2 = 0.85	1.38486
293.15 K, x2 = 0.8999	1.38241
293.15 K, x2 = 0.95	1.37993
303.15 K, x2 = 0	1.41599
303.15 K, x2 = 0.05	1.41398
303.15 K, x2 = 0.1	1.41198
303.15 K, x2 = 0.1499	1.41
303.15 K, x2 = 0.2004	1.408
303.15 K, x2 = 0.2497	1.40602
303.15 K, x2 = 0.3	1.40405
303.15 K, x2 = 0.3499	1.40202
303.15 K, x2 = 0.4008	1.40001
303.15 K, x2 = 0.4503	1.39797
303.15 K, x2 = 0.5	1.3959
303.15 K, x2 = 0.5498	1.3938
303.15 K, x2 = 0.6001	1.39166
303.15 K, x2 = 0.65	1.38947
303.15 K, x2 = 0.7001	1.38724
303.15 K, x2 = 0.7495	1.38498
303.15 K, x2 = 0.7989	1.38267
303.15 K, x2 = 0.8499	1.3803
303.15 K, x2 = 0.8997	1.37788
303.15 K, x2 = 0.95	1.37545
313.15 K, x2 = 0	1.41092
313.15 K, x2 = 0.0499	1.40889
313.15 K, x2 = 0.1001	1.40693
313.15 K, x2 = 0.1503	1.40494
313.15 K, x2 = 0.2001	1.40299
313.15 K, x2 = 0.2499	1.40102
313.15 K, x2 = 0.3003	1.39906
313.15 K, x2 = 0.3497	1.39707
313.15 K, x2 = 0.4	1.39507
313.15 K, x2 = 0.4502	1.39301
313.15 K, x2 = 0.5005	1.39098
313.15 K, x2 = 0.5499	1.38891
313.15 K, x2 = 0.6	1.38681
313.15 K, x2 = 0.6498	1.38469
313.15 K, x2 = 0.6999	1.38251
313.15 K, x2 = 0.75	1.38031
313.15 K, x2 = 0.7998	1.37808
313.15 K, x2 = 0.8498	1.37578
313.15 K, x2 = 0.8999	1.37345
313.15 K, x2 = 0.9499	1.37107
323.15 K, x2 = 0	1.40554
323.15 K, x2 = 0.0501	1.40351
323.15 K, x2 = 0.1	1.40154
323.15 K, x2 = 0.15	1.39952
323.15 K, x2 = 0.1998	1.39757
323.15 K, x2 = 0.25	1.39566
323.15 K, x2 = 0.3	1.39368
323.15 K, x2 = 0.35	1.39173
323.15 K, x2 = 0.4	1.38974
323.15 K, x2 = 0.4499	1.38775
323.15 K, x2 = 0.5	1.38572
323.15 K, x2 = 0.5501	1.38366
323.15 K, x2 = 0.6	1.38161
323.15 K, x2 = 0.65	1.37953
323.15 K, x2 = 0.7	1.37741
323.15 K, x2 = 0.7499	1.37522
323.15 K, x2 = 0.7999	1.37303
323.15 K, x2 = 0.85	1.3708
323.15 K, x2 = 0.9	1.36851
323.15 K, x2 = 0.95	1.36617

C1CCOCC1 [tetrahydropyran] + CC(C)CC(C)(C)C
Conditions	refractive index
293.15 K, x1 = 0.0502	1.39259
293.15 K, x1 = 0.1	1.39359
293.15 K, x1 = 0.1499	1.39461
293.15 K, x1 = 0.2	1.39567
293.15 K, x1 = 0.25	1.39677
293.15 K, x1 = 0.3	1.39792
293.15 K, x1 = 0.35	1.39911
293.15 K, x1 = 0.4	1.40036
293.15 K, x1 = 0.4498	1.40167
293.15 K, x1 = 0.5001	1.40303
293.15 K, x1 = 0.5501	1.40446
293.15 K, x1 = 0.5999	1.40595
293.15 K, x1 = 0.6501	1.40753
293.15 K, x1 = 0.6999	1.40917
293.15 K, x1 = 0.75	1.41092
293.15 K, x1 = 0.8	1.41274
293.15 K, x1 = 0.8501	1.41468
293.15 K, x1 = 0.9	1.4167
293.15 K, x1 = 0.95	1.41885
293.15 K, x1 = 1	1.42109
303.15 K, x1 = 0.0502	1.38756
303.15 K, x1 = 0.1	1.38853
303.15 K, x1 = 0.1499	1.38953
303.15 K, x1 = 0.2	1.39057
303.15 K, x1 = 0.25	1.39166
303.15 K, x1 = 0.2999	1.39279
303.15 K, x1 = 0.3498	1.39399
303.15 K, x1 = 0.3998	1.39524
303.15 K, x1 = 0.4498	1.39654
303.15 K, x1 = 0.5001	1.3979
303.15 K, x1 = 0.5501	1.39932
303.15 K, x1 = 0.5999	1.40081
303.15 K, x1 = 0.6501	1.40239
303.15 K, x1 = 0.6999	1.40403
303.15 K, x1 = 0.75	1.40577
303.15 K, x1 = 0.8	1.4076
303.15 K, x1 = 0.8501	1.40954
303.15 K, x1 = 0.9	1.41158
303.15 K, x1 = 0.95	1.41373
303.15 K, x1 = 1	1.41599
313.15 K, x1 = 0.0501	1.38237
313.15 K, x1 = 0.1002	1.38334
313.15 K, x1 = 0.1501	1.38433
313.15 K, x1 = 0.1999	1.38537
313.15 K, x1 = 0.2501	1.38645
313.15 K, x1 = 0.3	1.38759
313.15 K, x1 = 0.3499	1.38877
313.15 K, x1 = 0.4002	1.39001
313.15 K, x1 = 0.4502	1.39131
313.15 K, x1 = 0.4999	1.39266
313.15 K, x1 = 0.5499	1.39409
313.15 K, x1 = 0.6	1.39559
313.15 K, x1 = 0.65	1.39716
313.15 K, x1 = 0.6998	1.39881
313.15 K, x1 = 0.75	1.40055
313.15 K, x1 = 0.8001	1.40239
313.15 K, x1 = 0.8501	1.40432
313.15 K, x1 = 0.9001	1.40638
313.15 K, x1 = 0.9498	1.40857
313.15 K, x1 = 1	1.41092
323.15 K, x1 = 0.0501	1.37719
323.15 K, x1 = 0.1002	1.37814
323.15 K, x1 = 0.1501	1.37913
323.15 K, x1 = 0.1999	1.38015
323.15 K, x1 = 0.2501	1.38122
323.15 K, x1 = 0.3	1.38233
323.15 K, x1 = 0.3499	1.38349
323.15 K, x1 = 0.4002	1.38471
323.15 K, x1 = 0.45	1.38599
323.15 K, x1 = 0.5002	1.38733
323.15 K, x1 = 0.55	1.38874
323.15 K, x1 = 0.5997	1.39022
323.15 K, x1 = 0.65	1.39179
323.15 K, x1 = 0.6998	1.39343
323.15 K, x1 = 0.75	1.39518
323.15 K, x1 = 0.8001	1.39701
323.15 K, x1 = 0.8501	1.39895
323.15 K, x1 = 0.9002	1.40101
323.15 K, x1 = 0.95	1.40319
323.15 K, x1 = 1	1.40554
